Assay results published in patent US6610853B1, “N-(phenylsulfonyl)picolinamide derivatives, process for producing the same, and herbicide” (Kureha Kagaku Kogyo K.K., priority 2000, dated 2003).

Experiments:
Assay in all cases: Test on herbicidal activity by foliar application
Type in all cases: in vivo
Conditions in all cases: foliar spray, 1 kg/ha, plants at 1-2 leaf stage in pots, evaluated 14 days after spraying
Abutilon theophrasti = tested on: Abutilon theophrasti
Experimental: (§1) Test on Herbicidal Activity by Foliar Application: Herbicidal solutions of each test compounds, which were prepared by dissolving at predetermined concentrations such a wettable powder of the test compound as that described in the above Formulation Example, were sprayed at dosages of 1 kg/ha over foliar parts of Amaranthus retroflexus, Bidens pilosa, Sinapis arvensis, Stellaria media, Solanum nigrum, Abutilon theophrasti, Convolvulus arvensis, Matricaria chamomilla, Galium aparine, Veronica hederaefolia, and Setaria viridis (each test plant is 1-2 leaf stage) which were grown in pots. 14 days latter after spraying, its herbicidal activity was evaluated in accordance with the below-described system. Herbicidal Activity 1: less than 30% inhibition 2: 30% or more-50% inhibition 3: 50% or more-70% inhibition 4: 70% or more-90% inhibition 5: 90% or more inhibition

Amaranthus retroflexus = tested on: Amaranthus retroflexus
Experimental: as §1

Bidens pilosa = tested on: Bidens pilosa
Experimental: as §1

Convolvulus arvensis = tested on: Convolvulus arvensis
Experimental: as §1

Galium aparine = tested on: Galium aparine
Experimental: as §1

Matricaria chamomilla = tested on: Matricaria chamomilla
Experimental: as §1

Setaria viridis = tested on: Setaria viridis
Experimental: as §1

Sinapis arvensis = tested on: Sinapis arvensis
Experimental: as §1

Solanum nigrum = tested on: Solanum nigrum
Experimental: as §1

Stellaria media = tested on: Stellaria media
Experimental: as §1

Veronica hederaefolia = tested on: Veronica hederaefolia
Experimental: as §1

Structure (SMILES) | Herbicidal activity, Abutilon theophrasti (Abutilon theophrasti) | Herbicidal activity, Amaranthus retroflexus (Amaranthus retroflexus) | Herbicidal activity, Bidens pilosa (Bidens pilosa) | Herbicidal activity, Convolvulus arvensis (Convolvulus arvensis) | Herbicidal activity, Galium aparine (Galium aparine) | Herbicidal activity, Matricaria chamomilla (Matricaria chamomilla) | Herbicidal activity, Setaria viridis (Setaria viridis) | Herbicidal activity, Sinapis arvensis (Sinapis arvensis) | Herbicidal activity, Solanum nigrum (Solanum nigrum) | Herbicidal activity, Stellaria media (Stellaria media) | Herbicidal activity, Veronica hederaefolia (Veronica hederaefolia)
COc1ccc(C(=O)NS(=O)(=O)c2ccccc2OC(F)(F)F)nc1 [Compound I-774, N-[(2-Trifluoromethoxyphenyl)sulfonyl]-5-methoxy-2-pyridinecarboxamide] | 5 (90% or more inhibition) | 4 (70% or more-90% inhibition) | 5 (90% or more inhibition) | 4 (70% or more-90% inhibition) | 4 (70% or more-90% inhibition) | 5 (90% or more inhibition) | 5 (90% or more inhibition) | 5 (90% or more inhibition) | 5 (90% or more inhibition) | 5 (90% or more inhibition) | 5 (90% or more inhibition)
COc1ccc(C(=O)NS(=O)(=O)c2ccccc2OC(F)(F)F)nc1[N+](=O)[O-] [Compound I-778] | 5 (90% or more inhibition) | 4 (70% or more-90% inhibition) | 5 (90% or more inhibition) | 5 (90% or more inhibition) | 4 (70% or more-90% inhibition) | 5 (90% or more inhibition) | 3 (50% or more-70% inhibition) | 5 (90% or more inhibition) | 5 (90% or more inhibition) | 3 (50% or more-70% inhibition) | 2 (30% or more-50% inhibition)
COc1cc(Cl)nc(C(=O)NS(=O)(=O)c2ccccc2OC(F)(F)F)c1 [Compound I-795, N-[(2-Trifluoromethoxyphenyl)sulfonyl]-6-chloro-4-methoxy-2-pyridinecarboxamide] | 4 (70% or more-90% inhibition) | 4 (70% or more-90% inhibition) | 5 (90% or more inhibition) | 3 (50% or more-70% inhibition) | 5 (90% or more inhibition) | 5 (90% or more inhibition) | 2 (30% or more-50% inhibition) | 5 (90% or more inhibition) | 5 (90% or more inhibition) | 5 (90% or more inhibition) | 5 (90% or more inhibition)
COc1ccc(C(=O)NS(=O)(=O)c2ccccc2OC(F)(F)F)nc1Cl [Compound I-798, N-[(2-Trifluoromethoxyphenyl)sulfonyl]-6-chloro-5-methoxy-2-pyridinecarboxamide] | 5 (90% or more inhibition) | 5 (90% or more inhibition) | 5 (90% or more inhibition) | 4 (70% or more-90% inhibition) | 5 (90% or more inhibition) | 5 (90% or more inhibition) | 3 (50% or more-70% inhibition) | 5 (90% or more inhibition) | 5 (90% or more inhibition) | 5 (90% or more inhibition) | 5 (90% or more inhibition)
COc1ccc(C(=O)NS(=O)(=O)c2ccccc2OC(F)(F)F)nc1OC [Compound I-799, N-[(2-Trifluoromethoxyphenyl)sulfonyl]-5,6-dimethoxy-2-pyridinecarboxamide] | 5 (90% or more inhibition) | 3 (50% or more-70% inhibition) | 4 (70% or more-90% inhibition) | 3 (50% or more-70% inhibition) | 4 (70% or more-90% inhibition) | 5 (90% or more inhibition) | 3 (50% or more-70% inhibition) | 5 (90% or more inhibition) | 4 (70% or more-90% inhibition) | 5 (90% or more inhibition) | 4 (70% or more-90% inhibition)
COc1ccc(C(=O)NS(=O)(=O)c2ccccc2OC(F)(F)F)nc1Br [Compound I-805, N-[[2-Trifluoromethoxyphenyl]sulfonyl]-6-bromo-5-methoxy-2-pyridinecarboxamide] | 5 (90% or more inhibition) | 5 (90% or more inhibition) | 5 (90% or more inhibition) | 5 (90% or more inhibition) | 5 (90% or more inhibition) | 5 (90% or more inhibition) | 4 (70% or more-90% inhibition) | 5 (90% or more inhibition) | 5 (90% or more inhibition) | 5 (90% or more inhibition) | 4 (70% or more-90% inhibition)
COc1cc(Cl)nc(C(=O)NS(=O)(=O)c2ccccc2S(C)(=O)=O)c1 [Compound I-818, 6-Chloro-4-methoxy-N-[[2-(methylsulfonyl)-phenyl]sulfonyl]-2-pyridinecarboxamide] | 4 (70% or more-90% inhibition) | 5 (90% or more inhibition) | 5 (90% or more inhibition) | 5 (90% or more inhibition) | 5 (90% or more inhibition) | 5 (90% or more inhibition) | 5 (90% or more inhibition) | 5 (90% or more inhibition) | 5 (90% or more inhibition) | 5 (90% or more inhibition) | 4 (70% or more-90% inhibition)
COc1ccc(C(=O)NS(=O)(=O)c2ccccc2S(C)(=O)=O)nc1Br [Compound I-819, 6-Bromo-5-methoxy-N-[[2-(methylsulfonyl)-phenyl]sulfonyl]-2-pyridinecarboxamide] | 5 (90% or more inhibition) | 5 (90% or more inhibition) | 5 (90% or more inhibition) | 4 (70% or more-90% inhibition) | 4 (70% or more-90% inhibition) | 5 (90% or more inhibition) | 5 (90% or more inhibition) | 5 (90% or more inhibition) | 5 (90% or more inhibition) | 5 (90% or more inhibition) | 3 (50% or more-70% inhibition)
COc1ccc(C(=O)NS(=O)(=O)c2ccccc2S(=O)(=O)N(C)OC)nc1Br [Compound I-830, 6-Bromo-5-methoxy-N-[[2-(N-methyl-N-methoxyaminosulfonyl]phenyl]sulfonyl]-2-pyridinecarboxamide] | 5 (90% or more inhibition) | 5 (90% or more inhibition) | 5 (90% or more inhibition) | 5 (90% or more inhibition) | 5 (90% or more inhibition) | 5 (90% or more inhibition) | 4 (70% or more-90% inhibition) | 5 (90% or more inhibition) | 5 (90% or more inhibition) | 5 (90% or more inhibition) | 5 (90% or more inhibition)
COc1cc(Cl)nc(C(=O)NS(=O)(=O)c2ccccc2S(=O)(=O)N(C)OC)c1 [Compound I-838, 6-Chloro-4-methoxy-N-[[2-(N-methyl-N-methoxyamino)sulfonyl]phenylsulfonyl]-2-pyridinecarboxamide] | 5 (90% or more inhibition) | 4 (70% or more-90% inhibition) | 5 (90% or more inhibition) | 5 (90% or more inhibition) | 5 (90% or more inhibition) | 5 (90% or more inhibition) | 5 (90% or more inhibition) | 5 (90% or more inhibition) | 5 (90% or more inhibition) | 4 (70% or more-90% inhibition) | 4 (70% or more-90% inhibition)
